As a reminder, the IC50 is the point on the concentration scale where inhibition reaches its midpoint.

In series [1] the test system is HeLa, MCF-7, HepG2, B16, and A375 cancer cell lines. More on the design: method as in PMID 21496972. To be noted: MCF-7, HepG2, B16, A375; cited from earlier work.
A further series relates to CCRF-CEM cell line. More on the design: method as in PMID 27425639. To be noted: cited from earlier work.
Another series deals with HL-60(TB). As to the kind of experiment: NCI-60 screening (SRB). Format: cell-based, human. To be noted: HL-60(TB) (Leukemia); 1 dose 10 µM.
In another series the test system is Leukemia. As to the kind of experiment: NCI-60 screening (SRB), subpanel. Format: cell-based. To be noted: leukemia cancer cell lines; 1 dose 10 µM. An excerpt:
(§1) The experimental data allow the assessment of the cytostatic effect, indicated by growth inhibition values ranging between 0 and 100, as well as of the cytotoxic effect, indicated by negative values.
(§2) The mean GI50 (molar concentration of the compound that inhibits 50% net cell growth), TGI (molar concentration of the compound leading to the total inhibition), and LC50 (molar concentration of the compound leading to 50% net cell death (presented in negative logarithm)) values across each cell line are shown in Table 2.
(§3) The selectivity index (SI), calculated as the ratio between the full panel MG_MID60 (μM) of compounds 4, 6, and 9 by their respective subpanels MG_MID of the cell line (μM), was introduced as a quantification tool for the selectivity of each compound in terms of anticancer effect (Table 3).
(§4) Primary anticancer assays were performed according to the NCI protocol, as described elsewhere (see e.g., http://dtp.nci.nih.gov accessed on 1 November 2018). The compounds were added at a single concentration, and the cell cultures were incubated for 48 h. The end point determinations were made with a protein-binding dye, sulforhodamine B (SRB). […] The percentage of growth was evaluated spectrophotometrically versus controls not treated with test agents after 48 h exposure and using SRB protein assay to estimate cell viability or growth. Three antitumor activity dose-response parameters were calculated for each cell line. Furthermore, mean graph midpoints (MG_MID) were calculated for each of the parameters, giving an average activity parameter over all cell lines for the tested compound. For the MG_MID calculation, insensitive cell lines were included with the highest concentration tested.

The subject of the next series is A498. As to the kind of experiment: NCI-60 screening (SRB). Type of series: cell-based, human. The conditions noted are these: A498 renal cancer; 1 dose 10 µM.
Series [2] deals with NCI-60 cancer cell line panel. The series is described as follows: NCI-60 screening (SRB), full panel. The conditions noted are these: 1 dose 10 µM; for activity at 10 µM: Homo sapiens, 60 cell lines, 48 h. Format: cell-based, human.
Text: as §1, §2, §3, §4

A further series deals with CAKI-1. As to the kind of experiment: NCI-60 screening (SRB). Type of series: cell-based, human. To be noted: CAKI-1 (Renal cancer); 1 dose 10 µM.
The test system of the next series is LOX IMVI. As to the kind of experiment: NCI-60 screening (SRB). Format: cell-based, human. To be noted: LOXIMVI (Melanoma); 1 dose 10 µM.
The subject of series [3] is A549 non-small lung cancer cells. More on the design: method as in doi:10.1007/BF02974180, PMID 15694457. The conditions noted are these: cited from earlier work.
Another series has as its system HCT15 colon cancer cells. Also on record: method as in doi:10.1007/BF02974180, PMID 15694457. The conditions noted are these: cited from earlier work.
In series [4] the test system is HONE-1 nasopharyngeal cancer cells. Also on record: method as in doi:10.1007/BF02974180, PMID 15694457. The conditions noted are these: cited from earlier work.
The subject of series [5] is KB oral epidermoid cancer cells. More on the design: method as in doi:10.1007/BF02974180, PMID 15694457. The conditions noted are these: cited from earlier work.
Series [6] concerns HT29 colorectal cancer cells. More on the design: method as in doi:10.1007/BF02974180, PMID 15694457. The conditions noted are these: cited from earlier work.
Series [7] concerns NIH3T3 noncancer murine fibroblast cells. Also on record: method as in PMID 26044356. To be noted: NIH3T3 noncancer murine fibroblasts; cited from earlier work.
The subject of series [8] is T-lymphoblastic leukemia, breast adenocarcinoma, and cervical cancer cells. To be noted: cited from earlier work.

Entries after “also recorded” stand apart in the source; their conditions may differ. Read-outs that look alike come from different tables or passages of the source.

Turning to “3,23-dihydroxy-17-piperazinyl betulinic amide”, the IC50 in [1] is under 10 µM.
In the case of `C=C(C)C1CCC2(C(=O)N3CCNCC3)CCC3(C)C(CCC4C5(C)CCC(O)C(C)(C)C5CCC43C)C12` (centres unmarked) [Betulinic acid piperazinyl amide], in the series with CCRF-CEM cell line, the IC50 was 0.8 µM.
Consider `CCN1CCN(C(=O)[C@]23CCC(C)(C)C[C@H]2C2=CC[C@@H]4[C@@]5(C)CCC(=O)C(C)(C)[C@@H]5CC[C@@]4(C)[C@]2(C)CC3)CC1` [Compound 3, N-(3-oxo-olean-12-en-28-oyl)-ethylpiperazine], for which the Growth % in the series on HL-60(TB) is reported as −35.82%. The “growth percentages, range” value in the series on Leukemia was −35.82 to 37.47%. In the series on A498, the Growth % is listed as −7.95%. In [2], the “Positive Cytostatic Effect (cell lines with percent growth 0 to 50 / total)” value is listed as 5/59, the “Positive Cytotoxic Effect (cell lines with percent growth <0 / total)” value was 7/59 and the “antiproliferative effect in one dose primary screening” value (shortened to “antiproliferative effect”) was “moderate growth inhibition activity”. Moreover, in series [2] (read-out: Mean Growth, %), the activity at 10 µM was found to be 46%. In addition, the activity at 10 µM in [2] (read-out: Range of Growth, %) was -35.8 to 80.4%.
For the molecule `CCN1CCN(C(=O)[C@]23CCC(C)(C)C[C@H]2C2=CC[C@@H]4[C@@]5(C)C/C(=C/c6ccccn6)C(=O)C(C)(C)[C@@H]5CC[C@@]4(C)[C@]2(C)CC3)CC1` [Compound 5, N-(2-{2-Pyridinylidene}-3-oxoolean-12-en-28-oyl)-ethylpiperazine], in the series on CAKI-1, the Growth % is given as 49.25%. In series [2], the “Positive Cytostatic Effect (cell lines with percent growth 0 to 50 / total)” value is 0/59, the “Positive Cytotoxic Effect (cell lines with percent growth <0 / total)” value is 0/59 and the “antiproliferative effect” value is reported as “do not exhibit antiproliferative effects; also recorded: do not induce any significant antiproliferative activity”. Also, the activity at 10 µM in series [2] (read-out: Mean Growth, %) is 86.7%. Further, the activity at 10 µM in series [2] (read-out: Range of Growth, %) is 49.2 to 115%.
As to `CCN1CCN(C(=O)[C@]23CC[C@@H](C)[C@H](C)[C@H]2C2=CC[C@@H]4[C@@]5(C)C/C(=C/c6ccccn6)C(=O)C(C)(C)[C@@H]5CC[C@@]4(C)[C@]2(C)CC3)CC1` [Compound 8], the Growth % in the series with LOX IMVI stood at 74.76%. Besides, in [2], the “Positive Cytostatic Effect (cell lines with percent growth 0 to 50 / total)” value is on record as 0/59, the “Positive Cytotoxic Effect (cell lines with percent growth <0 / total)” value is 0/59 and the “antiproliferative effect” value is reported as “do not exhibit antiproliferative effects; also recorded: do not induce any significant antiproliferative activity”. In addition, in series [2] (read-out: Mean Growth, %), the activity at 10 µM worked out at 92.4%. In addition, the activity at 10 µM in [2] (read-out: Range of Growth, %) is 74.8 to 108%.
In the case of `C[C@H]1[C@H](C)CC[C@]2(C(=O)O)CC[C@]3(C)C(=CC[C@@H]4[C@@]5(C)CCC(=O)C(C)(C)[C@@H]5CC[C@]43C)[C@H]12` [Ursonic acid], the half-inhibitory concentration (IC50) in series [3] is 7.7 µM; in the series with HCT15 colon cancer cells, 4.6 µM; in series [4], 5.2 µM; in series [5], 4 µM; in series [6], 6.3 µM; in series [7] it was over 50 µM.
Consider `C=C(C)C1CCC2(C(=O)N3CCNCC3)CCC3(C)C(CCC4C5(C)CCC(O)C(C)(C)C5CCC43C)C12` (centres unmarked) [piperazine amide of betulinic acid], for which, in series [8], the cytotoxicity was 0.7 to 7.8 µM.

The values above are taken from article PMC8536124 (International Journal of Molecular Sciences, 2021).
